Laboratory results: patent publication US20140194321A1 (CELLOMICS, INC., priority 2013, published 2014)
Read-outs that look alike come from different tables or passages of the source.

How the values were obtained:
U937 cells [1] = experiment: High-content imaging skin sensitizing prediction assay: U937 cells treated 24 h with a range of compound concentrations, CD54 intensity per cell and cell number dose response curves qualified, decision matrix applied; conditions: for CD54/Cell Result: qualified dose response curve (increasing/flat/decreasing) of CD54 intensity per cell; for CD54/Cell Result / Cell Number Result: U937 cells, 24 hours compound treatment, range of concentrations; for Cell Number Result: qualified dose response curve (increasing/flat/decreasing) of number of cells; for Outcome: skin sensitivity prediction from decision matrix of FIG. 8 (CD54/cell vs cell number), Toxic* = at concentrations tested
Text: (§1) In step 160, the data corresponding to the different compound concentrations is normalized. In one embodiment, measurements generated from the vehicle-treated cell image analysis can be used. […] As such, a normalization of the data obtained from the compound-treated cells can be determined by subtracting the baseline response of the vehicle-treated cells from the measurements of the responses of the compound-treated cells. Measured values of the compound-treated cells that are below baseline levels can be notated as lacking a response, and can be ignored in further analysis, if desired.
(§2) This can be done by calculating a mean value for the measured target at each concentration level, taking into account all of the samples corresponding to the particular concentration level.
(§3) For example, mean values for gross markers can be computed for the number of cells using either the number of cell bodies or the number of nuclei detected. For specific markers, mean values can be computed for each of the features (e.g., CD54 (ICAM-1) intensity). […] Other mean values can also be used. In addition, other representative values can also be used for each concentration of the compound, such as a highest measured value, a lowest measured value, or other representative values.
(§4) This can be done by plotting on a graph the average value of the target for each concentration. […] Using the plotted points, a simple curve 170 can be generated, as shown. This simple curve represents the dose response curve.
(§5) In one embodiment, qualifying the dose response curve can be accomplished by categorizing the curve as “increasing,” “decreasing,” or “flat.”
(§6) The predefined range can be determined using a standard deviation value, a percentage of total range, or a percentage of highest value. […] In the experimental results, discussed below, the predefined range was determined using a percentage of the highest value for the curve.
(§7) In step 170, a decision matrix is applied to the qualified dose response of one or more of the measured parameters to predict skin sensitization. The qualified dose response of any of the measured cellular targets can be used. For example, the cellular targets used in the decision matrix can be selected from the gross markers, specific markers and/or the functional response of the cells. Using the selected properties, a decision matrix can be constructed based upon the expected behavior of the cell type in response to the compound used. The dose response curve behavior (e.g., “increasing,” “flat,” or “decreasing”) of the measured cellular properties can then be used to determine the prediction of sensitizing capability of the compound. In some embodiments, the decision matrix can also be used to determine if the compound is toxic.
(§8) To determine a predicted skin sensitivity of a tested compound, one simply finds the matrix location corresponding to both of the qualified dose responses determined for the tested compound, and the entry within that matrix location identifies the predicted skin sensitivity of the compound.
(§9) The compounds for which skin sensitivity is desired can then be introduced to the immune effector cells. For each concentration level of each compound, 100 μl of the 2× concentrated compound solution can be added to the corresponding wells. Similarly, 100 μl of vehicle solution can be added to the vehicle control wells and the 2× solution of the negative and positive controls can be added to the negative and positive control wells, respectively. The plate can then be incubated for 24 hours at 37° C. in 5% CO2.
(§10) After incubation, the plate can be centrifuged for 5 minutes at 125×g. The media can then be aspirated from the wells after which 50 μl of pre-warmed (e.g., to 37° C.) 4% paraformaldehyde can be added to each well.

U937 cells [2] = tested on: U937 cells
Text: as §1, §2, §3, §4, §5, §6, §7, §8, §9, §10

Row | Molecule | CD54/Cell Result (U937 cells [1]) | Cell Number Result (U937 cells [1]) | Outcome (U937 cells [1]) | Outcome (U937 cells [2])
1 | NCCNc1ccccc1 [Phenylethylenediamine] | Decrease | Increase | Non-sensitizer | –
2 | CCCCCCCC(=O)O [Octanoic Acid] | Increase | Increase | Sensitizer | –
3 | Nc1ccccc1O [2-aminophenol] | Increase | Increase | Sensitizer | –
4 | N#CCCC(Br)(C#N)CBr (centres unmarked) [2bromo-2bromomethylglutaronitrile] | Decrease | – | Toxic* | –
5 | Butanol | Flat | Increase | – | –
6 | O=C(O)c1ccccc1O [Salicylic Acid] | Decrease | Decrease | Toxic* | –
7 | CC(C)=O [Acetone] | Increase | Decrease | Sensitizer | –
8 | CCOC(=O)c1ccccc1C(=O)OCC [Diethyl Phthalate] | Decrease | Decrease | Toxic* | –
9 | CCOc1cc(C=O)ccc1O [Ethyl Vanillin] | Decrease | Decrease | – | Toxic*
10 | CC(O)CO (centres unmarked) [Propylene Glycol] | Decrease | Flat | Non-sensitizer | –
11 | CC(C)O [Isopropanol] | Decrease | – | Non-sensitizer | –
12 | CCCCCCCCCCCCOS(=O)(=O)[O-].[Na+] [Sodium Lauryl Sulfate] | Increase | Increase | Sensitizer | –
13 | OCC(O)CO [Glycerol] | Flat | – | Non-sensitizer | –
14 | CCO [Ethanol] | Decrease | Increase | Non-sensitizer | –
15 | C=CC(=O)OCCO [2hydroxyethylacrylate] | Increase | Increase | Sensitizer | –
16 | O=Cc1ccccc1 [Benzylaldehyde] | Increase | Increase | Sensitizer | –
17 | CC(C)=CCC/C(C)=C/CO [Geraniol] | Increase | Increase | Sensitizer | –
18 | O=CC=O [Glyoxal] | Increase | Decrease | Sensitizer | –
19 | CN(C)C=O [DMF] | Increase | Increase | – | Sensitizer
20 | C[S+](C)[O-] [DMSO] | Decrease | Increase | – | Non-sensitizer
21 | CC(O)C(=O)O (centres unmarked) [Lactic Acid] | Decrease | Decrease | Toxic* | –
22 | CCCCCCCC/C=C\CCCCCCCC(=O)OCCOCC(OCCO)C1OCC(OCCO)C1OCCO (centres unmarked) [Tween 80] | Decrease | Increase | Non-sensitizer | –
